Test results published in US20140296337A1, “CNS MODULATORS” (BTG International Limited, priority 2004, published 2014).

How the values were obtained:
[1] = tested on: EEG frequency bands (delta, theta activity); settings: cited from earlier work
[2] = tested on: electrical power of four rat brain areas (frontal cortex, hippocampus, striatum, reticular formation); test: Tele-Stereo-EEG: continuous recording of intracerebral field potentials in the freely moving rat; assay type: in vivo
Excerpt: Analysis of brain field potentials (“Tele-Stereo-EEG”) has been proven to be a very sensitive tool for the characterization of drug effects on the central nervous system (Dimpfel et al., 1986). After administration of a centrally active drug, quantitative changes in the brain field potentials can be considered as a characteristic fingerprint of that particular drug. “Fingerprints” of more than 100 compounds have been obtained including 8 established drug categories, e.g. analgesics, antidepressants, neuroleptics, stimulants, tranquilizers, sedatives and narcotics. Different dosages of the same drug cause quantitative changes in electrical power. […] Direct comparison with specific reference drugs, or by discriminant analysis with reference to an extensive fingerprint database, permits the detection of any possible similarities with established drugs. In general, “fingerprints” show prominent differences for drugs prescribed for different indications and are similar for drugs with similar indication (Dimpfel 2003). Furthermore, the pattern of EEG changes in the rat is a useful tool in predicting possible changes in the EEG power spectrum in humans.
Five intraperitoneal doses (30 mg/kg, 100 mg/kg, 300 mg/kg, 600 mg/kg and 1000 mg/kg body weight) of sodium (R)-3-hydroxybutyrate (BHB) were investigated using the “Tele-Stereo-EEG” animal model consisting of continuous recording of intracerebral field potentials in the freely moving rat. No effects could be measured using 1 ml/kg of a solution containing 20 mM of Na-bicarbonate (pH 8.4 or pH 12.5) for control purposes. […] Most marked changes were observed within the alpha2 range.
Adult Fisher rats (4-6 month of age and day—night converted, weight about 400 g) were implanted with 4 bipolar concentric steel electrodes using a stereotactic surgical procedure (Paxinos and Watson, 1982). All four electrodes were placed 3 mm lateral within the left hemisphere. Anterior coordinates were 12.2, 5.7, 9.7 and 3.7 mm for frontal cortex, hippocampus, striatum and reticular formation, respectively. A baseplate carrying the electrodes and a 5-pin-plug was fixed to the skull by dental cement attached to 3 steel screws fixed into the skull. Animals were given two weeks for recovery from the surgical procedure. Experiments were performed in compliance with the German Health Authority Guidelines and with local authority approval. EEG signals were recorded from frontal cortex, hippocampus, striatum and reticular formation and were amplified and processed as described previously (see Dimpfel et al., 1986). After automatic artefact rejection, signals were collected in sweeps of 4 s duration and submitted to Fast Fourier transformation. The resulting electrical power spectra were divided into 6 frequency ranges: delta (0.8-4.5 Hz); theta (4.75-6.75 Hz); alpha1 (7.00-9.50 Hz); alpha2 (9.75-12.50 Hz); beta (12.75-18.50 Hz); beta2 (18.75-35.00 Hz). […] In an off-line procedure spectra were averaged to give 15 minute or longer periods for further statistical analysis.
Five dosages of BHB (30, 100, 300, 600 and 1000 mg/kg body weight) (supplied by Solvias AG, CH 4002 Basel, Switzerland, batch No: SO-1058.047.1.120) and a vehicle control (0.9% w/v saline) were administered intraperitoneously to a group of 12 animals using a crossover design with at least 3 drug holidays in between the applications. Additional controls consisted of a 1 ml/kg of a solution containing 20 mM of Na-bicarbonate (adjusted to 8.4 and pH 12.5 obtained by titration with 1N NaOH) were tested to ascertain possible effects due to the alkaline pH of the BHB solution. After a pre-drug period of 45 minutes for baseline recording, drug effects were observed continuously for 300 minutes. Changes of electrical power (μV2W) are expressed as % of the 45 min. pre-drug values. Multivariate statistics were calculated according to Ahrens and Lauter (1974).

[3] = BHB 100 mg/kg i.p. single dose, rat
[4] = BHB 300 mg/kg i.p. single dose, rat

CN1[C@@H]2C[C@@H](OC(=O)[C@H](CO)c3ccccc3)C[C@H]1[C@@H]1O[C@@H]12 [scopolamine]
change of delta activity ([1]; drugs affecting the cholinergic system): increase of power

C[C@@H](O)CC(=O)[O-].[Na+] [BHB, sodium (R)-3-hydroxybutyrate]
discriminant analysis of EEG fingerprint (24 variables) ([2]; 6 frequency ranges, 4 brain areas, one time period): close proximity to paroxetine and tramadol | effects on EEG frequencies relative to the saline control ([2]; BHB 30 mg/kg body weight i.p. single dose, rat): no statistically significant effects | duration of EEG effects [2, 3]: 1 to 2 h | statistical significance of EEG changes [2, 3]: not statistically significant | EEG frequency changes (electrical power, % of pre-drug values) ([2]; BHB 100 mg/kg i.p. single dose, rat, all regions, mainly alpha2, less delta): decrease of electrical power | EEG frequency changes (electrical power, % of pre-drug values) [2, 4]: decreases in alpha2 power throughout all brain regions | duration of pattern of EEG changes [2, 4]: two | statistical significance of EEG changes ([2]; BHB 300 mg/kg i.p. single dose, rat, by brain region): statistically significant for the frontal cortex, hippocampus and reticular formation, but not for the striatum | duration of EEG effects ([2]; BHB 600 mg/kg i.p. single dose, rat, generally, except reticular formation): 2 h | statistical significance of EEG changes ([2]; BHB 600 mg/kg i.p. single dose, rat, including first hour within striatum): statistically highly significant | duration of decreases of power in the reticular formation ([2]; BHB 600 mg/kg i.p. single dose, rat): persisted throughout the third hour | EEG frequency changes (electrical power, % of pre-drug values) ([2]; BHB 1000 mg/kg i.p. single dose, rat): more prominent decreases of power lasting into the third hour | statistical significance of EEG changes ([2]; BHB 1000 mg/kg i.p. single dose, rat, even 5th hour within reticular formation): statistically highly significant | duration of decreases of power in the reticular formation ([2]; BHB 1000 mg/kg i.p. single dose, rat, total experimental time): 5 h | similarity of EEG electrical fingerprint to reference drugs ([2]; BHB at a lower dosage, vs galanthamine 3 mg/kg and paroxetine 2 mg/kg): similarity to the “electrical fingerprints” of the acetylcholine esterase inhibitor galanthamine and also the antidepressant paroxetine | statistical significance of EEG changes ([2]; BHB dose levels of 300-1000 mg/kg i.p., rat): statistically highly significant | similarity of EEG profile to reference drugs ([2]; higher dosages of BHB, vs tramadol 10 mg/kg): reminiscent of the effects as observed after the administration of tramadol

Clc1cccc(Cl)c1N=C1NCCN1 [clonidine]
change of theta activity ([1]; drug down regulating the norepinephrine system (presynaptic adrenergic alpha2 receptor)): increases
